Twelve compounds from ChEMBL document CHEMBL4806963, “Antagonistic peptides for frizzled-1 and frizzled-2” (2013) can be followed below.

Assay [1] addresses Frizzled-2 (Rattus norvegicus) (UniProt Q08464). Briefly: Antagonist activity at Wnt3a-stimulated rat frizzled-2 expressed in […] cells up to 10 uM incubated for 24 hrs by luciferase reporter gene assay. The conditions noted are these: dose microM <=10, time 24.0 hrs. Type of assay: cell-based.
Assay [2] addresses Frizzled-1 (Rattus norvegicus) (UniProt Q08463). Briefly: Antagonist activity at Wnt3a-stimulated rat frizzled-1 expressed in African green monkey COS7 cells up to 10 uM incubated for 24 hrs by luciferase reporter gene assay. Type of assay: cell-based. To be noted: dose microM <=10, time 24.0 hrs.
For assay [3], the target named is Frizzled-2 (Homo sapiens) (UniProt Q14332). Briefly: Antagonist activity at Wnt3a-stimulated frizzled-2 (unknown origin) expressed in human HEK293superTOP flash cells at 10 nM incubated for 24 hrs by luciferase reporter gene assay. Type of assay: functional, cell-based. To be noted: HEK293.
Frizzled-2 (Homo sapiens), sequence (Q14332 24-565 limits assumed): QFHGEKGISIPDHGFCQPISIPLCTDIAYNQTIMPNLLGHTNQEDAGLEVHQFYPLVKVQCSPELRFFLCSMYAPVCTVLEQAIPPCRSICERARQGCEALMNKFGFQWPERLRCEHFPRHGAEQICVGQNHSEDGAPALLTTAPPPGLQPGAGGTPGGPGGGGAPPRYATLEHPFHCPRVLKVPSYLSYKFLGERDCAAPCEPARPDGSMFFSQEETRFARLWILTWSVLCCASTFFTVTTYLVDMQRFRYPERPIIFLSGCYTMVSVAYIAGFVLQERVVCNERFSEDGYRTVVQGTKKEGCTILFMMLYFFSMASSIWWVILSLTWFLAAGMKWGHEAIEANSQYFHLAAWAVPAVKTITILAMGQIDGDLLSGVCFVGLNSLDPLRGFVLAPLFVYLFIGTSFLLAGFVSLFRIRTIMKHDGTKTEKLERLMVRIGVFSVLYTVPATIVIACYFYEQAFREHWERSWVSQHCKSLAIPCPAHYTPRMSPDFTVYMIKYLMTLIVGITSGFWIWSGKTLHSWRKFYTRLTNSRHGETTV
In assay [4] the target is Frizzled-1 (Homo sapiens) (UniProt Q9UP38). Briefly: Antagonist activity at Wnt3a-stimulated frizzled-1 (unknown origin) expressed in human HEK293superTOP flash cells at 10 nM incubated for 24 hrs by luciferase reporter gene assay. Type of assay: functional, cell-based. To be noted: HEK293.
Frizzled-1 (Homo sapiens), sequence (Q9UP38 70-647 limits assumed): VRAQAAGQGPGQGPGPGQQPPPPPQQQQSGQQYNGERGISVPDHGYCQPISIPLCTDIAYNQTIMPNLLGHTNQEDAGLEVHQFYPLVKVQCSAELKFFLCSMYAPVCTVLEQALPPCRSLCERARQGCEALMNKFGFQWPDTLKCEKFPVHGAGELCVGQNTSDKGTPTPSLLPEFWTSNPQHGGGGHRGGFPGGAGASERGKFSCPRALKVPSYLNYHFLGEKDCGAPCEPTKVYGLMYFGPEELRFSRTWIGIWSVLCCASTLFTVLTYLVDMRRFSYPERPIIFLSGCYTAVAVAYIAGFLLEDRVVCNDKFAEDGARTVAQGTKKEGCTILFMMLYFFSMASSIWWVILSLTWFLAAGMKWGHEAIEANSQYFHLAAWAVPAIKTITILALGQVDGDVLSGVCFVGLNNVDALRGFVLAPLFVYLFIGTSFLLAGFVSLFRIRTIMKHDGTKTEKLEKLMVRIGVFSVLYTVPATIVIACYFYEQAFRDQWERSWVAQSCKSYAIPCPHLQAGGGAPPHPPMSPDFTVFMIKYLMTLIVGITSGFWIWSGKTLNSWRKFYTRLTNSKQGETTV
For assay [5], the target named is Frizzled-2 (Homo sapiens) (UniProt Q14332). Briefly: Antagonist activity at Wnt3a-stimulaed frizzled-2 (unknown origin) expressed in human HEK293superTOP flash cells at 1 nM incubated for 24 hrs by luciferase reporter gene assay (reference value: 0%). Type of assay: functional, cell-based.
Assay [6] has as its target Frizzled-1 (Rattus norvegicus) (UniProt Q08463). Briefly: Antagonist activity at Wnt3a-stimulated rat frizzled-1 expressed in CHO cells up to 10 uM incubated for 24 hrs by luciferase reporter gene assay. Type of assay: cell-based. The conditions noted are these: dose microM <=10, time 24.0 hrs.
For assay [7], the target named is Frizzled-1 (Homo sapiens) (UniProt Q9UP38). Briefly: Antagonist activity at Wnt3a-stimulaed frizzled-1 (unknown origin) expressed in human HEK293superTOP flash cells at 1 nM incubated for 24 hrs by luciferase reporter gene assay (reference value: 0%). Type of assay: functional, cell-based.
The target of assay [8] is Frizzled-2 (Rattus norvegicus) (UniProt Q08464). As to the kind of experiment: Antagonist activity at Wnt3a-stimulated rat frizzled-2 expressed in African green monkey COS7 cells up to 10 uM incubated for 24 hrs by luciferase reporter gene assay. Type of assay: cell-based. The conditions noted are these: dose microM <=10, time 24.0 hrs.
Frizzled-2 (Rattus norvegicus), sequence (Q08464 29-570 limits assumed): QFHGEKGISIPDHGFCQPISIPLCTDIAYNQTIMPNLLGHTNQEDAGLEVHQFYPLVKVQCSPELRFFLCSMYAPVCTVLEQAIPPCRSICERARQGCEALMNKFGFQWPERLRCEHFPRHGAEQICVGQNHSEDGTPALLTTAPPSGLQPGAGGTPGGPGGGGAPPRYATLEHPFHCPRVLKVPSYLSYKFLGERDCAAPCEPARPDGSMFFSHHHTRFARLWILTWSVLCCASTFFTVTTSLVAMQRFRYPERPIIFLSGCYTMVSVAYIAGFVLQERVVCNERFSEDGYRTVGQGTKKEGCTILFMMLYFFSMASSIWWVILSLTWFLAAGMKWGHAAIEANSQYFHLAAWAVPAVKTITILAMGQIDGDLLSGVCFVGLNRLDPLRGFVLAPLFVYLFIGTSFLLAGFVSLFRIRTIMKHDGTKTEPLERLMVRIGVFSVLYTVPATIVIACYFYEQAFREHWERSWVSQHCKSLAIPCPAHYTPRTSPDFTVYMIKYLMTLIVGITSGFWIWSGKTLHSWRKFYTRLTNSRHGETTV

Activity calls are given as the source filed them. The calls are words filed in the database; no cut-off is given here. Where a SMILES comes first, the peptide text is derived from it.

Frizzled-1 (Rattus norvegicus), sequence (Q08463 whole entry): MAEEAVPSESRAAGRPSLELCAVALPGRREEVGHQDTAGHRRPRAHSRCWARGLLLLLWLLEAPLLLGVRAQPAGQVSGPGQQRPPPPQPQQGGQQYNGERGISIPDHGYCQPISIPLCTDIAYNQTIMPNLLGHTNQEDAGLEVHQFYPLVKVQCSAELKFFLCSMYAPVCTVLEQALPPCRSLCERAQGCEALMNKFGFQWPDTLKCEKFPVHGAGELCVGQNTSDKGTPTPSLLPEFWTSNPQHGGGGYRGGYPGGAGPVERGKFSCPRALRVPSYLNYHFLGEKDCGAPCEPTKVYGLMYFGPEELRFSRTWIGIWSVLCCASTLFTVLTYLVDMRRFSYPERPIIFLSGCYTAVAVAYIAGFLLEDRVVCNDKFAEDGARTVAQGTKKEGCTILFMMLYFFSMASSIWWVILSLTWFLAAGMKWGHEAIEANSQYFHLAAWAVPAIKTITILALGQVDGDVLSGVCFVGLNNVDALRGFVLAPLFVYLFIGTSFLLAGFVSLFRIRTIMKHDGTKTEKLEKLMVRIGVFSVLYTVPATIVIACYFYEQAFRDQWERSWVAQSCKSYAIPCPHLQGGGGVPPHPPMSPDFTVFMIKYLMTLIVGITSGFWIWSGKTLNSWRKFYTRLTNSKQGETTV

With `CSCC[C@H](NC(=O)CNC(=O)[C@H](CCC(=O)O)NC(=O)[C@H](CO)NC(=O)[C@@H](NC(=O)[C@H](CCCCN)NC(=O)[C@H](C)NC(=O)[C@H](CS)NC(C)=O)[C@@H](C)O)C(=O)N[C@@H](CC(=O)O)C(=O)NCC(=O)N[C@@H](CS)C(=O)N[C@@H](CCC(=O)O)C(=O)N[C@@H](CC(C)C)C(N)=O` (Ac-CAKTSEGMDGCEL-NH2), the inhibition result in assay [1], in assay [2], in assay [3], in assay [4], in assay [6] and in assay [8] was “inactive” each time. Besides, the inhibition in assay [5] (HEK293, filed as antagonist) was determined as 79.5%; in assay [7] (HEK293, filed as antagonist), 68%.

For the compound `CSCC[C@H](NC(=O)CNC(=O)[C@H](CCC(=O)O)NC(=O)[C@H](CO)NC(=O)[C@@H](NC(=O)[C@H](C)NC(=O)[C@H](CC(N)=O)NC(=O)[C@H](CS)NC(C)=O)[C@@H](C)O)C(=O)N[C@@H](CC(=O)O)C(=O)NCC(=O)N[C@@H](CS)C(=O)N[C@@H](CCC(=O)O)C(=O)N[C@@H](CC(C)C)C(N)=O` (Ac-CNATSEGMDGCEL-NH2), the inhibition entry in assay [1], in assay [2], in assay [3], in assay [4], in assay [6] and in assay [8] was “inactive” throughout. Also, the inhibition in assay [5] (HEK293, filed as antagonist) was determined as 84.9%; in assay [7] (HEK293, filed as antagonist), 70.8%.

For `CSCC[C@H](NC(=O)[C@H](C)NC(=O)[C@H](CCC(=O)O)NC(=O)[C@H](CO)NC(=O)[C@H](C)NC(=O)[C@H](CCCCN)NC(=O)[C@H](CC(N)=O)NC(=O)[C@H](CS)NC(C)=O)C(=O)N[C@@H](C)C(=O)NCC(=O)N[C@@H](CS)C(=O)N[C@@H](CCC(=O)O)C(=O)N[C@@H](CC(C)C)C(N)=O` (Ac-CNKASEAMAGCEL-NH2), the inhibition result in assay [1], in assay [2], in assay [3], in assay [4], in assay [6] and in assay [8] was “inactive” throughout. Further, the figures for the inhibition in assay [5] (HEK293) and in assay [7] (HEK293) were 17.5% and 11.2%, respectively.

Take `CSCC[C@H](NC(=O)CNC(=O)[C@H](CCC(=O)O)NC(=O)[C@H](CO)NC(=O)[C@H](C)NC(=O)[C@H](CCCCN)NC(=O)[C@H](CC(N)=O)NC(=O)[C@H](CS)NC(C)=O)C(=O)N[C@@H](CC(=O)O)C(=O)NCC(=O)N[C@@H](CS)C(=O)N[C@@H](CCC(=O)O)C(=O)N[C@@H](CC(C)C)C(N)=O` (Ac-CNKASEGMDGCEL-NH2): the inhibition result in assay [1], in assay [2], in assay [3], in assay [4], in assay [6] and in assay [8] was “inactive” throughout. Further, the inhibition came out at 59.4% in assay [5] (HEK293, filed as antagonist) and 28.1% in assay [7] (HEK293).

With `CSCC[C@H](NC(=O)CNC(=O)[C@H](CCC(=O)O)NC(=O)[C@H](C)NC(=O)[C@@H](NC(=O)[C@H](CCCCN)NC(=O)[C@H](CC(N)=O)NC(=O)[C@H](CS)NC(C)=O)[C@@H](C)O)C(=O)N[C@@H](CC(=O)O)C(=O)NCC(=O)N[C@@H](CS)C(=O)N[C@@H](CCC(=O)O)C(=O)N[C@@H](CC(C)C)C(N)=O` (Ac-CNKTAEGMDGCEL-NH2), the inhibition entry in assay [1], in assay [2], in assay [3], in assay [4], in assay [6] and in assay [8] was “inactive” in each case. Besides, the inhibition is 87.3% in assay [5] (HEK293, filed as antagonist) and 74.3% in assay [7] (HEK293, filed as antagonist).

Regarding `CSCC[C@H](NC(=O)CNC(=O)[C@H](C)NC(=O)[C@H](CO)NC(=O)[C@@H](NC(=O)[C@H](CCCCN)NC(=O)[C@H](CC(N)=O)NC(=O)[C@H](CS)NC(C)=O)[C@@H](C)O)C(=O)N[C@@H](CC(=O)O)C(=O)NCC(=O)N[C@@H](CS)C(=O)N[C@@H](CCC(=O)O)C(=O)N[C@@H](CC(C)C)C(N)=O` (Ac-CNKTSAGMDGCEL-NH2), the inhibition result in assay [1], in assay [2], in assay [3], in assay [4], in assay [6] and in assay [8] was “inactive” in each case. In addition, the inhibition is 84.7% in assay [5] (HEK293, filed as antagonist) and 70.8% in assay [7] (HEK293, filed as antagonist).

With `CSCC[C@H](NC(=O)[C@H](C)NC(=O)[C@H](CCC(=O)O)NC(=O)[C@H](CO)NC(=O)[C@@H](NC(=O)[C@H](CCCCN)NC(=O)[C@H](CC(N)=O)NC(=O)[C@H](CS)NC(C)=O)[C@@H](C)O)C(=O)N[C@@H](CC(=O)O)C(=O)NCC(=O)N[C@@H](CS)C(=O)N[C@@H](CCC(=O)O)C(=O)N[C@@H](CC(C)C)C(N)=O` (Ac-CNKTSEAMDGCEL-NH2), the inhibition result in assay [1], in assay [2], in assay [3], in assay [4], in assay [6] and in assay [8] was “inactive” in each case. For the same compound, the inhibition in assay [5] (HEK293, filed as antagonist) came to 63.1%; in assay [7] (HEK293, filed as antagonist), 52.6%.

Take `CC(=O)N[C@@H](CS)C(=O)N[C@@H](CC(N)=O)C(=O)N[C@@H](CCCCN)C(=O)N[C@H](C(=O)N[C@@H](CO)C(=O)N[C@@H](CCC(=O)O)C(=O)NCC(=O)N[C@@H](C)C(=O)N[C@@H](CC(=O)O)C(=O)NCC(=O)N[C@@H](CS)C(=O)N[C@@H](CCC(=O)O)C(=O)N[C@@H](CC(C)C)C(N)=O)[C@@H](C)O` (Ac-CNKTSEGADGCEL-NH2): the inhibition entry in assay [1], in assay [2], in assay [3], in assay [4], in assay [6] and in assay [8] was “inactive” throughout. The inhibition in assay [5] (HEK293, filed as antagonist) was determined as 85%; in assay [7] (HEK293, filed as antagonist), 67.6%.

As for `CSCC[C@H](NC(=O)CNC(=O)[C@H](CCC(=O)O)NC(=O)[C@H](CO)NC(=O)[C@@H](NC(=O)[C@H](CCCCN)NC(=O)[C@H](CC(N)=O)NC(=O)[C@H](CS)NC(C)=O)[C@@H](C)O)C(=O)N[C@@H](C)C(=O)NCC(=O)N[C@@H](CS)C(=O)N[C@@H](CCC(=O)O)C(=O)N[C@@H](CC(C)C)C(N)=O` (Ac-CNKTSEGMAGCEL-NH2), the inhibition entry in assay [1], in assay [2], in assay [3], in assay [4], in assay [6] and in assay [8] was “inactive” in each case. For the same compound, the inhibition in assay [5] (HEK293, filed as antagonist) was 60.5%; in assay [7] (HEK293, filed as antagonist), 40.5%.

As to `CSCC[C@H](NC(=O)CNC(=O)[C@H](CCC(=O)O)NC(=O)[C@H](CO)NC(=O)[C@@H](NC(=O)[C@H](CCCCN)NC(=O)[C@H](CC(N)=O)NC(=O)[C@H](CS)NC(C)=O)[C@@H](C)O)C(=O)N[C@@H](CC(=O)O)C(=O)N[C@@H](C)C(=O)N[C@@H](CS)C(=O)N[C@@H](CCC(=O)O)C(=O)N[C@@H](CC(C)C)C(N)=O` (Ac-CNKTSEGMDACEL-NH2), the inhibition entry in assay [1], in assay [2], in assay [3], in assay [4], in assay [6] and in assay [8] was “inactive” each time. The inhibition in assay [5] (HEK293, filed as antagonist) turned out to be 83.3%; in assay [7] (HEK293, filed as antagonist), 69.9%.

As for `CSCC[C@H](NC(=O)CNC(=O)[C@H](CCC(=O)O)NC(=O)[C@H](CO)NC(=O)[C@@H](NC(=O)[C@H](CCCCN)NC(=O)[C@H](CC(N)=O)NC(=O)[C@H](CS)NC(C)=O)[C@@H](C)O)C(=O)N[C@@H](CC(=O)O)C(=O)NCC(=O)N[C@@H](CS)C(=O)N[C@@H](C)C(=O)N[C@@H](C)C(N)=O` (Ac-CNKTSEGMDGCAA-NH2), the inhibition entry in assay [1], in assay [2], in assay [3], in assay [4], in assay [6] and in assay [8] was “inactive” each time. In addition, the inhibition came to 74.3% in assay [5] (HEK293, filed as antagonist) and 66.8% in assay [7] (HEK293, filed as antagonist).

`CSCC[C@H](NC(=O)CNC(=O)[C@H](CCC(=O)O)NC(=O)[C@H](CO)NC(=O)[C@@H](NC(=O)[C@H](CCCCN)NC(=O)[C@H](CC(N)=O)NC(=O)[C@H](CS)NC(C)=O)[C@@H](C)O)C(=O)N[C@@H](CC(=O)O)C(=O)NCC(=O)N[C@@H](CS)C(=O)N[C@@H](C)C(=O)N[C@@H](CC(C)C)C(N)=O` (Ac-CNKTSEGMDGCAL-NH2): the inhibition result in assay [1], in assay [2], in assay [3], in assay [4], in assay [6] and in assay [8] was “inactive” each time. For the same compound, the inhibition is 85.5% in assay [5] (HEK293, filed as antagonist) and 65.9% in assay [7] (HEK293, filed as antagonist).
